Assay [1] deals with FXa (Homo sapiens, UniProt P00742). Description: In vitro chromogenic factor Xa inhibitory assay. Format: biochemical.
Assay [2] concerns thrombin. Particulars: cited from earlier work; for IC50: thrombin inhibitors.

Sequence of FXa (P00742 235-488 limits assumed): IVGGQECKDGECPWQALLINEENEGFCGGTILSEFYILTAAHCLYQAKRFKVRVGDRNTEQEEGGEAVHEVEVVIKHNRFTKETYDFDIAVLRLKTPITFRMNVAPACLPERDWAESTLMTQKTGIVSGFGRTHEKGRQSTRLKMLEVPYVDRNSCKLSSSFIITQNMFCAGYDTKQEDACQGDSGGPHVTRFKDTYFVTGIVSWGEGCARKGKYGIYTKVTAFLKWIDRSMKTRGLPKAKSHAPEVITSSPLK
Sequence of FXa (P00742 41-179 partner limits assumed): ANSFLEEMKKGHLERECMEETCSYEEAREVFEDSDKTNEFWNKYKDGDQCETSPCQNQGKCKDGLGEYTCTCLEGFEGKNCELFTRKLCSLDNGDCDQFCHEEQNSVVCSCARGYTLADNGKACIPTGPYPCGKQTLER

In the case of `O=c1cc(-c2ccc(O)cc2)oc2cc(O)ccc12` [Compound 1, 7,4′-dihydroxyflavone], in assay [1], the “FXa inhibitory activity (in words)” value was “Moderate activity” and the IC50 was 67.1 ± 1.75 µM.
With `O=C1C[C@@H](c2ccc(O[C@@H]3O[C@H](CO)[C@@H](O)[C@H](O)[C@H]3O)cc2)Oc2cc(O)ccc21` [Compound 5, liquiritin], the IC50 in assay [1] is 5.15 ± 0.09 µM. For the same compound, the “thrombin inhibitory effects (in words)” value in assay [2] was “negligible”.
As for `O=C(/C=C/c1ccc(O)cc1)c1ccc(O)cc1O` [Compound 4, isoliquiritigenin], in assay [1], the “FXa inhibitory activity (in words)” value is recorded as “Moderate activity” and half-maximal inhibition (IC50) was put at 74.4 ± 1.29 µM. In addition, the IC50 in assay [2] is 17.9 µM.
`COc1c(/C=C/C(=O)c2ccc(O)c(O)c2)ccc(O)c1O` [Compound 7, 3,3′,4,4′-tetrahydroxy-2-methoxychalcone]: the 50% inhibitory concentration (IC50) in assay [1] is 10.4 ± 0.52 µM.
On to “liquiritigenin-4′-O-β-D-apiosyl(1-2)-β-D-glucoside [Compound 8]”, for which, in assay [1], the “FXa inhibitory activity (in words)” value is recorded as “very weak effects”.
For “isoliquiritigenin-4-O-β-D-apiosylglucoside [Compound 10]”, the “FXa inhibitory activity (in words)” value in assay [1] is “very weak effects”. The half-inhibitory concentration (IC50) in assay [2] is 37.9 µM.
On to `CC1(C)C=Cc2c(ccc3c2OC[C@@H](c2ccc(O)cc2O)C3)O1` [Compound 3, 3-R-glabridin], for which, in assay [1], the “FXa inhibitory activity (in words)” value is “Moderate activity” and 35.3 ± 1.03 µM corresponded to half-maximal inhibition (IC50).
The compound `COc1ccc(-c2coc3cc(O)ccc3c2=O)cc1` [Compound 2, 7-hydroxy-4′-methoxyisoflavone] gave an IC50 in assay [1] of 17.7 ± 0.28 µM.

Source of the values: publication PMC8695410 (RSC Advances, 2021).
